Measurements taken from PMC6208485, “Discovery of the first macrolide antibiotic binding protein in Mycobacterium tuberculosis: a new antibiotic resistance drug target” (Protein & Cell, 2018).

Target: MABP-1 (Rv3197) (Mycobacterium tuberculosis, UniProt O53343)
Sequence (O53343 entry or part of it): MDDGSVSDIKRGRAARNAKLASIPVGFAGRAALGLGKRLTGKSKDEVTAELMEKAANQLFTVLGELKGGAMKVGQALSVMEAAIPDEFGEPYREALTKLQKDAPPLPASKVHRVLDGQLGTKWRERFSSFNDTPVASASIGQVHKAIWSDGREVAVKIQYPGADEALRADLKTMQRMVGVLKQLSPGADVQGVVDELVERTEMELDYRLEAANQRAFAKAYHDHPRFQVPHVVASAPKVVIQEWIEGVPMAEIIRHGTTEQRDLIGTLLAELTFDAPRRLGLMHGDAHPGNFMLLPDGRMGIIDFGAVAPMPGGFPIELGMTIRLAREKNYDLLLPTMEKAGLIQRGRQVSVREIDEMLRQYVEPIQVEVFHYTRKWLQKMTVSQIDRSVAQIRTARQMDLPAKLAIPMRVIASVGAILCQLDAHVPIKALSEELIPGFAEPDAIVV

SMILES | crystal structure of the complex
Nc1ncnc2c1ncn2[C@@H]1O[C@H](COP(=O)(O)OP(=O)(O)O)[C@@H](O)[C@H]1O [ADP] | crystal structures of MABP-1 in complex with AMPPNP and with ADP, were determined
CC[C@H]1OC(=O)[C@H](C)[C@@H](O[C@H]2C[C@@](C)(OC)[C@@H](O)[C@H](C)O2)[C@H](C)[C@@H](O[C@@H]2O[C@H](C)C[C@H](N(C)C)[C@H]2O)[C@](C)(O)C[C@@H](C)C(=O)[C@H](C)[C@@H](O)[C@]1(C)O [erythromycin] | The electron density for erythromycin was unequivocal revealing it is located in a shallow pocket
Nc1ncnc2c1ncn2[C@@H]1O[C@H](COP(=O)(O)OP(=O)(O)NP(=O)(O)O)[C@@H](O)[C@H]1O [AMPPNP] | crystal structures of MABP-1 in complex with AMPPNP and with ADP, were determined
